Results published in patent publication US20250206714A1, “COMPOSITIONS AND METHODS FOR TREATMENT OF INFLAMMATORY DISEASES” (Invea Therapeutics, Inc., priority 2022, published 2025).
Entries after “also recorded” stand apart in the source; their conditions may differ.

Experiments:
IL-1β = test: LPS+ATP-induced model of inflammasome activation, plasma IL-1β by ELISA; format: in vivo, Balb/c mice; conditions: for % IL-1 β inhibition: mice plasma
Method: The procedures detailed here can be utilized for testing all compounds of the disclosure. The example utilizes LPS+ATP-induced model of inflammasome activation in 8-10 weeks old male Balb/c mice for in vivo testing.
8-10 weeks old male Balb/c mice were challenged by intraperitoneal (i.p.) injection of 200 μg/Kg (0.2 μg/g) LPS at t=0 hr, followed by i.p. injection of 5 mM solution of ATP at t=2 hr (2 h after LPS challenge). The compound of disclosure being tested for inhibitory activity (such as Compound 6) was administered both via intraperitoneal and oral route at −1 hr. Different doses of the compound of the disclosure were given to the mice […] as shown below.
MCC950, a specific small molecule inhibitor of NLRP3 inflammasome was used as a positive control to enable comparison of inhibitory activity of the compounds of the disclosure along with a known inhibitor. 2.5 hours after the LPS priming (or 0.5 hours after ATP administration), blood was collected via retro-orbital bleeding in heparinized blood collection tubes. Blood was centrifuged for 5 minutes at 10,000 rpm in a refrigerated centrifuge to obtain plasma. Separated plasma was used for cytokine assessment by ELISA. The standard curve (OD VS concentration) for IL-1β was also plotted and used to determine the IL-1β concentration for the OD values. The percentage of inhibition of IL-1β was calculated using the formula: […]

CYP 1A2 = biological target: T1, CYP 1A2 (Homo sapiens, UniProt P05177); test: Metabolic stability in human liver microsomes with CYP 1A2 inhibitor Furafylline; format: in vitro ADME; conditions: 1 μM + Furafylline (20 μM)
T1 construct: The experiment was conducted in human liver microsomes; from tissue; host or cells: human liver microsomes
T1 sequence (P05177 1-516): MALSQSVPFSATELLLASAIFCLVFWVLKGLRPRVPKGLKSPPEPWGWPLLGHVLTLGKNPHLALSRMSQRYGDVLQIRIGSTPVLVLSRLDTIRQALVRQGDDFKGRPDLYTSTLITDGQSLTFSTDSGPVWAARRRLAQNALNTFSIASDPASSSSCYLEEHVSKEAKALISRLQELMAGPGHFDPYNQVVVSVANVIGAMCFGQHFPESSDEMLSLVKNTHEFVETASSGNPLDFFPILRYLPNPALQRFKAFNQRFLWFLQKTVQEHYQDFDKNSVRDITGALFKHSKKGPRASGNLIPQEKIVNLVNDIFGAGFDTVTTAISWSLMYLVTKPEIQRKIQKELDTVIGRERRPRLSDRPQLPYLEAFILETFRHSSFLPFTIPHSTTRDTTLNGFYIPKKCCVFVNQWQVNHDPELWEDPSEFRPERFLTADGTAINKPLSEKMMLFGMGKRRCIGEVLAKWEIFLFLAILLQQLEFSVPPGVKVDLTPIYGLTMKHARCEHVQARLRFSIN

in vitro = conditions: for % rem @ 5 min / % rem @ 15 min / % rem @ 30 min / % rem @ 45 min: 1 µM; for % rem @ 5 min / % rem @ 15 min / % rem @ 30 min / % rem @ 45 min / half-life at 1 µM / microsomal CLint at 1 μM: pH 7.4; for half-life at 1 µM / microsomal CLint at 1 μM: microsomes
Method: All the tubes were pre-incubated at 37 t 1° C. for 5 min in a shaking water bath. Tubes of NADPH solution (10 mM) were similarly pre-incubated in similar conditions. After pre-incubation, 20 μL NADPH solution (10 mM) was added to the T0, T5, T15, T30, and T45 tubes, and 20 μL of buffer was added to the TControl tube which makes the final concentration to 1 μM respectively. T0 was immediately quenched with 200 μL of quenching solution containing warfarin as internal standard (IS). Similarly, at the end of the incubation period (5, 15, 30, and 45 minutes) of respective tubes, 200 μL of quenching solution containing warfarin as internal standard (IS) was added to each tube to stop the reaction. Resulting samples were centrifuged at 3220 g (relative centrifugal force) for 20 min. Supernatant (200 μL) from each reaction tube was taken for LC-MS/MS analysis.

CYP 2C9 = biological target: T2, CYP 2C9 (Homo sapiens, UniProt P11712); test: Metabolic stability in human liver microsomes with CYP 2C9 inhibitor Sulfaphenazole; format: in vitro ADME; conditions: 1 μM + Sulfaphenazole (20 μM)
T2 construct: The experiment was conducted in human liver microsomes; from tissue; host or cells: human liver microsomes

CYP2D6 = biological target: T3, CYP2D6 (Homo sapiens, UniProt P10635); test: Metabolic stability in human liver microsomes with CYP 2D6 inhibitor Quinidine; format: in vitro ADME; conditions: 1 μM + Quinidine (20 μM)
T3 construct: The experiment was conducted in human liver microsomes; from tissue; host or cells: human liver microsomes

MDR1 (P-gp) = test: in vitro; set-up: Papp A→B at 60 min / Papp B→A at 60 min / efflux ratio at 60 min / recovery at 60 min / % recovery Apical concentration-Basal concentration / % recovery Basal concentration-Apical concentration: dose or concentration left out as unconfirmed; conditions: dog
Method: (§1) Digoxin is used as reference and lucifer yellow is used as the integrity marker. […] Papp, efflux ratio and percent recovery are calculated.

MDR1 = test: in vitro; set-up: Papp A→B at 60 min / Papp B→A at 60 min / efflux ratio at 60 min / recovery at 60 min / % recovery Apical concentration-Basal concentration / % recovery Basal concentration-Apical concentration: dose or concentration left out as unconfirmed; conditions: dog, MDCK-MDR1
Method: as §1

[1] = Metabolic stability assay in human liver microsomes in the presence of specific cytochrome P450 inhibitors (arm without inhibitor, summary statements)
[2] = human liver microsomes, 1 μM, no inhibitor
[3] = human, human liver microsomes, pH 7.4

T3 sequence (P10635 whole entry): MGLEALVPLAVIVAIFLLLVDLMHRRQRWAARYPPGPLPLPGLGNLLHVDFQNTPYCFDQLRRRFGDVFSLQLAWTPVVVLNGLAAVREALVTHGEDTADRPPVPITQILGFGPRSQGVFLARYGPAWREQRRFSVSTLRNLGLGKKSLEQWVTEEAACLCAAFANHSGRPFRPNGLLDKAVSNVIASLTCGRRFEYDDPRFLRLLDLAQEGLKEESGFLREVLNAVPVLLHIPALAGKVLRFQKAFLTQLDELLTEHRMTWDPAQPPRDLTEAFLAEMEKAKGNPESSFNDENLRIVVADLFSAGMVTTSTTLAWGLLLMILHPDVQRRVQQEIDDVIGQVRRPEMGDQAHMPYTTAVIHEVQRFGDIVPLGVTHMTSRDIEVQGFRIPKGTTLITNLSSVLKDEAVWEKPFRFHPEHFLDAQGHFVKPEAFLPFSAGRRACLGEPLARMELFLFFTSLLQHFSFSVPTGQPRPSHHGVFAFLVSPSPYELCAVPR
T2 sequence (P11712 whole entry): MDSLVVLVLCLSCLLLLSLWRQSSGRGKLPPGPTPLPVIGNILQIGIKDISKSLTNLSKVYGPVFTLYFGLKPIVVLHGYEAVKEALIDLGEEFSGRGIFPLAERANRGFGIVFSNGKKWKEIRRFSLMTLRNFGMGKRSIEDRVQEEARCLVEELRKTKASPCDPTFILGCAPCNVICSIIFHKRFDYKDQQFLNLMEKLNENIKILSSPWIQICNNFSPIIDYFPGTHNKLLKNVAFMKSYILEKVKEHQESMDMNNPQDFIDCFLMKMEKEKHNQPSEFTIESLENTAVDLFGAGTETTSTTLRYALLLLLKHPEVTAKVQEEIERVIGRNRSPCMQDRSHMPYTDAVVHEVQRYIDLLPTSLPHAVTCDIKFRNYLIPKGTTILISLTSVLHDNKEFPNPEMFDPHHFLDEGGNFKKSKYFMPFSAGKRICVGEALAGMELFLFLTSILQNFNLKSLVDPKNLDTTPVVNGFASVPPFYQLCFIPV

O=C1Nc2ccccc2N(C(=O)CCl)c2ccc(F)cc21 [Compound 6, 5-(2-chloroacetyl)-2-fluoro-5,10-dihydro-11H-dibenzo[b,e][1,4]diazepin-11-one]
% IL-1 β inhibition (IL-1β; 1 mg/kg, Intraperitoneal): 52%
% IL-1 β inhibition (IL-1β; 10 mg/kg, Intraperitoneal): 79%
% IL-1 β inhibition (IL-1β; 10 mg/kg, Oral): 46%
plasma IL-1β levels under in vivo conditions (FIG. 4, in words) (IL-1β; escalating doses, LPS+ATP mice model): dose dependent reduction of IL-β; also recorded: dose dependent decrease in IL-1β levels
% rem @ 5 min (CYP 1A2): 96.8%
% rem @ 15 min (CYP 1A2): 87.7%
% rem @ 30 min (CYP 1A2): 66.9%
% rem @ 45 min (CYP 1A2): 63.2%
half-life at 1 µM (CYP 1A2; pH 7.4, with Furafylline 20 μM): 1.03 h
microsomal CLint at 1 μM (CYP 1A2; pH 7.4, with Furafylline 20 μM, read-out: mCLint): 22.5 µL/min/mg
stability / metabolism by liver microsomes (in words) (in vitro): medium to highly stability
% rem @ 5 min (in vitro; human): 93.5%
% rem @ 15 min (in vitro; human): 92.9%
% rem @ 30 min (in vitro; human): 91.3%
% rem @ 45 min (in vitro; human): 67.8%
half-life at 1 µM (in vitro; human): 1.6 h
microsomal CLint at 1 μM (in vitro; human): 14.4 µL/min/mg
% rem @ 5 min (in vitro; mouse): ~100%
% rem @ 15 min (in vitro; mouse): ~100%
% rem @ 30 min (in vitro; mouse): 79.3%
% rem @ 45 min (in vitro; mouse): 59.8%
half-life at 1 µM (in vitro; mouse): 0.95 h
microsomal CLint at 1 μM (in vitro; mouse): 24.3 µL/min/mg
% rem @ 5 min (in vitro; rat): 98.7%
% rem @ 15 min (in vitro; rat): 83.1%
% rem @ 30 min (in vitro; rat): 75.3%
% rem @ 45 min (in vitro; rat): 74.0%
half-life at 1 µM (in vitro; rat): 1.58 h
microsomal CLint at 1 μM (in vitro; rat): 14.6 µL/min/mg
% rem @ 5 min (CYP 2C9): 69.7%
% rem @ 15 min (CYP 2C9): 63.3%
% rem @ 30 min (CYP 2C9): 73.8%
% rem @ 45 min (CYP 2C9): 54.3%
half-life at 1 µM (CYP 2C9; pH 7.4, with Sulfaphenazole 20 μM): 1.28 h
microsomal CLint at 1 μM (CYP 2C9; pH 7.4, with Sulfaphenazole 20 μM, read-out: mCLint): 18 µL/min/mg
% rem @ 5 min (CYP2D6): 80.8%
% rem @ 15 min (CYP2D6): 67.3%
% rem @ 30 min (CYP2D6): 57.4%
% rem @ 45 min (CYP2D6): 60.1%
half-life at 1 µM (CYP2D6; pH 7.4, with quinidine 20 µM): 1.07 h
microsomal CLint at 1 μM (CYP2D6; pH 7.4, with quinidine 20 µM, read-out: mCLint): 21.6 µL/min/mg
efflux ratio at 60 min (MDR1 (P-gp); MDCK-MDR1): 1.22
recovery at 60 min (MDR1 (P-gp); MDCK-MDR1, % recovery Apical concentration-Basal concentration): 49.1%
recovery at 60 min (MDR1 (P-gp); MDCK-MDR1, % recovery Basal concentration-Apical concentration): ~100%
Papp A→B at 60 min (MDR1): 26 ×10⁻⁶ cm/s
Papp A→B at 60 min, 5 µM (MDR1): 26 ×10⁻⁶ cm/s
Papp B→A at 60 min (MDR1): 31.6 ×10⁻⁶ cm/s
efflux ratio at 60 min, 5 µM (MDR1): < 2
stability in human liver microsomes (in words) ([1]; human liver microsomes): medium to highly stability
degradation ([1]; human liver microsomes, in presence of specific CYP inhibitors): 40-45%
% rem @ 5 min [1, 2]: 93.5%
% rem @ 15 min [1, 2]: 92.9%
% rem @ 30 min [1, 2]: 91.3%
% rem @ 45 min [1, 2]: 67.8%
half-life at 1 µM [1, 3]: 1.6 h
microsomal CLint at 1 μM [1, 3]: 14.4 µL/min/mg
degradation ([1]; incubated in human liver microsomes, no inhibitor): ~35%
